Test results: patent US20240216356A1, “TASTE MASKED COMPOSTIONS OF 2,4,6-TRIFLUORO-N-[6-(1-METHYL-PIPERIDINE-4-CARBONYL)-PYRIDIN-2-YL]-BENZAMIDE HEMISUCCINATE, AND ORALLY DISENTEGRATING TABLET COMPRISING THE SAME” (priority 2021, published 2024)
Values after ≈ are worked out from the molar mass of the structure shown.

Experiments:
[1] = current marketed immediate release tablets; cited from earlier work
[2] = Solubility of lasmiditan over the pH range of the oral cavity; type: physicochemical
Method: Lasmiditan is highly soluble (dissolves readily in the mouth) but extremely bitter in taste, and has other negative sensory attributes, that preclude conventional ODT development. […] The efficacious dose is from 25 to 200 mg depending on patient weight or other factors. […] Extreme bitterness, mouth numbing, and other negative sensory attributes are present and persist for 30 minutes.

CN1CCC(C(=O)c2cccc(NC(=O)c3c(F)cc(F)cc3F)n2)CC1 [Lasmiditan, 2,4,6-trifluoro-N-[6-(1-methyl-piperidin-4-ylcarbonyl)-pyridin-2-yl]-benzamide]
onset of action (time to symptom relief) [1]: about 2 hours | solubility ([2]; pH 5, aqueous buffer): 35 mg/mL (≈ 92.7 mM) | solubility ([2]; pH 6.8, aqueous buffer): 9.8 mg/mL (≈ 26 mM)
